The subject of test [1] is rat red blood cells. Put plainly: S-nitrosylation of intraerythrocytic Hb (loading of red blood cells). It is filed as cell-based. To be noted: oxygenated rat red blood cells. How it is done: Given that Hb is largely contained within red blood cells, potential mechanisms by which S-nitrosylation of intracellular protein might occur were explored. […] Rapid oxidation of Hb was not observed under these conditions. […] Thus, erythrocyte access of RSNOs is thiol group specific.
Incubation of rat erythrocytes with S-nitrosocysteine (equimolar to heme (5 mM); phosphate buffer pH 7.4, 25° C.) leads to rapid formation of intracellular SNO-Hb(FeII)O2. […] By 60 min, 3 of the 4 available SH groups of Hb are S-nitrosylated (note that rat Hb contains 4 reactive SH groups). […] Spectrum A is that of SNO-Hb isolated from erythrocytes following G-25 chromatography. Treatment of A with dithionite results in reduction of the S—NO moiety, liberating free NO which is autocaptured by deoxy Hb, forming Hb(FeII)NO (note that dithionite simultaneously deoxygenates Hb) (spectrum C). […] The spectrum of Hb(FeII)NO containing 4 NO's per tetramer is shown for comparison (inset, spectrum B).
At shown intervals, red blood cells were pelleted rapidly by centrifugation, washed three times, lysed in deionized water at 4° C., and the cytosolic fraction subjected to rapid desalting across G-25 columns. Intracellular SNO-Hb was measured by the method of Saville (Gaston, B., et al., (1992); Stamler, J. S., et al., Proc. Natl. Acad. Sci. USA, 89:444-448 (1992)), and confirmed spectroscopically (inset of FIG. 3A) as described above.

The subject of test [2] is rabbit thoracic aorta rings. The test can be described thus: Oxygen-dependent rabbit aortic ring bioassay of Hb, SNO-Hb, GSNO and SNO-RBCs.
The test system of test [3] is Sprague-Dawley rats. The test can be described thus: Local cerebral blood flow by H2-sensitive microelectrodes. It counts as in vivo, rat. Conditions: for local cerebral blood flow: 1 μmol/kg infused over 3 minutes. How it is done:
Adult male Sprague-Dawley rats (290-350 g) were anesthetized with sodium pentobarbital (50 mg/kg IP), intubated and ventilated with a small animal respirator (Edco Scientific Inc., Chapel Hill, N.C.) at a rate and tidal volume to maintain normal values of PaCO2 (35-45 mm Hg; PaCO2=systemic arterial blood carbon dioxide tension). The femoral vein and artery were cannulated for infusion of drugs and for continuous monitoring of systemic blood pressure, respectively. Aliquots of arterial blood (200 μl) were drawn periodically to measure blood gas tensions and pH (Instrumentation Laboratory Co., model 1304 blood gas/pH analyzer). The blood was replaced intravenously with three volumes of normal saline. The inspired O2 concentration was varied using premixed gases balanced with nitrogen. The tissue PO2 was measured continuously with polarographic platinum microelectrodes (50 μm O.D. coated with hydrophobic gas permeable Nafion) implanted stereotaxically in both the right and left hippocampus (AP−3.4 mm, ML+2.2 mm), caudate putamen nucleus and substantia nigra (see coordinates below) (Young, W., Stroke, 11:552-564 (1980); Heiss, W. D. and Traupett, H., Stroke, 12:161-167 (1981); Dewhirst, M. W. et al., Cancer Res., 54:3333-3336 (1994); Kerger, H. et al., Am. J. Physiol., 268:H802-H810 (1995)). The PO2 electrodes were polarized to −0.65V against a distant Ag/AgCl reference located on the tail and the current flow was measured using a low-impedance nA-meter. Regional arterial PO2 was adjusted by changing the inspired O2 concentration and atmospheric pressure.
Polarographic hydrogen (H2)-sensitive microelectrodes were implanted stereotaxically in the substantia nigra (AP −5.3 mm, ML −2.4 mm to the bregma, depth 3.2 mm), caudate putamen nucleus (CPN) (AP +0.8 mm, ML −2.5 mm, depth 5.2 mm) and parietal cortex, for measurement of regional blood flow (Young, W., Stroke, 11:552-564 (1980); Heiss, W. D. and Traupett, H., Stroke, 12:161-167 (1981)). The microelectrodes were made from platinum wire and insulated with epoxy, with the exception of the tip (1 mm) which was coated with Nafion. For placement, the electrodes were mounted on a micromanipulator and the rat's head was immobilized in a Kopf stereotaxic frame. H2-sensitive electrodes were polarized to +400 mV against a distant reference electrode on the tail, and the polarographic current was measured using a low-impedance nA meter during and after the inhalation of hydrogen gas (2.5%) for 1 min. Both the hydrogen clearance curves and voltage for oxygen measurements were made using PC WINDAQ (software, DI-200 AC, Dataq Instruments, Inc., Akron, Ohio). Cerebral blood flow was calculated using the initial slope method (Young, W., Stroke, 11:552-564 (1980); Heiss, W. D. and Traupett, H., Stroke, 12:161-167 (1981)). Regional blood flow responses were monitored for 30 min. prior to and 30 min. following drug administration; hemoglobins were given at time 0.
The cerebrovascular effects of SNO-Hb were measured in adult male Sprague-Dawley rats using O2 and H2 (blood flow)-sensitive microelectrodes that were placed stereotaxically in several regions of the brain as for Example 11.
Comparative effects of SNO-Hb (●) and Hb (▪) (1 μmol/kg infused over 3 minutes) on local blood flow in substantia nigra (SN), caudate putamen nucleus, and parietal cortex are shown for three different conditions. […] Baseline blood flow was decreased by ˜10% under 100% O2+3 ATA as compared to 100% O2. n=7 for all data points. Values of tissue/microvascular PO2 ranged from 19-37 mm Hg in 21% O2; from 68-138 mm Hg in 100% O2; and from 365-538 mm Hg in 100%+3 ATA (Duke University Medical Center Hyperbaric Chambers).

Test [4] concerns Rats. Put plainly: Hemodynamics (blood pressure) at different O2 concentrations. It counts as in vivo, rat. To be noted: 1 μmol/kg infused over 1 minute; 10 min. post-infusion. How it is done:
Rats were anesthetized by intraperitoneal injection of pentobarbital, and the femoral arteries and veins accessed by local cutdown. The artery was then cannulated and the blood pressure monitored continuously using a P23 XL pressure transducer (Viggo Spectramed, Oxnard, Calif.) attached to a Gould recorder. The femoral vein was used for infusion of drugs and red blood cells containing SNO-Hb (1 ml over 1 min.) and an IBM PC (WINDAQ 200, Dataq Instruments, Inc.; Akron, Ohio) was used for data acquisition.
Drugs were infused through the femoral vein at 1 μmol/kg infused over 1 minute after blood pressure had stabilized (approximately 30 min). Measurements shown (FIG. 11A) were taken at 10 min. post-infusion of drug. […] P<0.05 vs. SNO-Hb; *P<0.05, **P<0.01) vs. baseline blood pressure. n=5-6 for each drug.
The hypotensive effects of SNO-RBCs were potentiated by pre-administration of the NO synthase inhibitor N^G-monomethyl-L-arginine (L-NMMA; 50 mg/kg). n=8 for each data point. Curves different by ANOVA (P<0.01), *P<0.05 vs. L-NMMA. The amount of hemolysis in these experiments was trivial. Infusion of the hemolysate had no effect on blood pressure.

The nature of test [5]: SNO-Hb decomposition and transnitrosation with glutathione. It is filed as biochemical. How it is done:
The decomposition of SNO-Hb(FeII) is further accelerated by the presence of excess glutathione. Within the dead time of our measurements (˜15 sec) a major fraction of SNO-Hb(FeII) was converted to GSNO.
Hbs in PBS (0.5 mM EDTA, pH 7.4) were incubated in air (oxy) or in a tonometer previously evacuated of O2 (deoxy). SNO-Hb(FeII)O2 decomposition was determined by the method of Saville (Saville, B., Analyst, 83:670-672 (1958)). Spontaneous decomposition of SNO-Hb(FeII) was followed spectrophotometrically by formation of Hb(FeII)NO. […] Rates of NO group transfer were too rapid to measure accurately by the standard methods used in this study.
Data are presented as the amount of GSNO formed relative to the starting SNO-Hb concentration.
Thiol/SNO-Hb exchange, forming GSNO, was verified chemically (Stamler, J. S., et al., Proc. Natl Acad. Sci. USA 89:444-448 (1992)) following trichloroacetic acid precipitation (n=5).

Test [6] deals with vascular ring. The test can be described thus: Vessel ring bioassay of SNO-Hb preparations, with or without glutathione. Conditions: for effect of added glutathione on the dose-response: glutathione 100 μM in bioassay chambers; for activity in vascular ring bioassay: no glutathione. An excerpt:
Arterial red blood cells contain two physiologically important forms of hemoglobin: Hb(FeII)O2 and Hb(FeIII) (Antonini et al. (1971)). […] Such findings raise the possibility of functional consequences, perhaps influenced by the redox state of heme and its occupation by ligand.
Details of the vessel ring bioassay have been published (Stamler, J. S., et al., Proc. Natl. Acad. Sci. USA 89:444-448 (1992)). SNO-Hb(FeII)O2 preparations were synthesized with 10-fold excess S-nitrosocysteine (CYSNO) over Hb(FeII)O2 protein (2% borate, 0.5 mM EDTA, ˜15 min incubation), after which desalting was performed across Sephadex G-25 columns. CYSNO was synthesized in 0.5 N HCl, 0.5 mM EDTA and then neutralized (1:1) in 1 M phosphate buffer containing 0.5 mM EDTA. […] The latter was synthesized by treatment of Hb(FeII)O2 with excess ferricyanide, followed by desalting across G-25 columns. SNO-Hb concentrations were verified spectroscopically and the S-nitrosothiol content was determined by the method of Saville (Stamler, J. S., et al., Proc. Nat. Acad. Sci. USA 89:444-448 (1992)). The S-NO/tetramer stoichiometry for both SNO-Hb preparations was ˜2. Oxidation of the heme was undetectable by uv-spectrophotometric methods.

In test [7] the test system is Sprague-Dawley rat. Put plainly: Mean arterial pressure after femoral vein bolus of cell-free Hb and SNO-Hbs. It is filed as in vivo. Conditions: for blood pressure response: bolus, femoral vein, anesthetized rat. An excerpt:
Systemic administration of cell-free Hb results in hypertensive responses which have been attributed to NO scavenging by the heme (Vogel, W. M., et al., Am. J. Physiol. 251:H413-H420 (1986); Olsen, S. B., et al., Circulation 93:329-332 (1996)). To determine if SNO-Hb is free of this adverse affect, and to explore if in vitro mechanisms of NO release extend to the in vivo circumstance, we compared responses to Hb and SNO-Hb infused as a bolus into the femoral vein of anesthetized rats. […] Thus, the profiles of these compounds in vivo closely resemble those seen in vitro (FIG. 4A). […] These changes in mean blood pressure of ˜10% are on the order of those that differentiate normotension from hypertension in man, and in the therapeutic range of some antihypertensive regimens. […] The bioactivity of SNO-Hb in blood, where S—NO/heme stoichiometries approach 1:50,000, is a dramatic illustration of the resistence of this NO-related activity to Hb(Fe) inactivation.
Administration of 2-200 nmol/kg Hb(FeII)O2 (as a bolus) into the femoral vein of a Sprague-Dawley rat is shown to increase mean arterial pressure in a dose-dependent manner. At 200 nmol/kg, mean arterial pressure increased by 25 mm Hg (20±3 mm Hg; n=4; P<0.05). Elevations in blood pressure reversed within 10-15 min. SNO-Hb(FeII)O2 infusions (over the same dose range) are shown to ameliorate Hb(FeII)O2-induced hypertension without causing overt changes in blood pressure. […] A fall in blood pressure was also seen with injection of erythrocytes containing SNO-Hb.
Rats were anesthetized by intraperitoneal injection of pentobarbital and the femoral arteries and veins accessed by local cut down. The artery was then cannulated and the blood pressure monitored continuously using a Viggo Spectramed pressure transducer attached to a Gould recorder. An IBM PC (DATA Q Codas) was used for data acquisition.

For `N[C@@H](CCC(=O)N[C@@H](CSN=O)C(=O)NCC(=O)O)C(=O)O` [S-nitrosoglutathione], in test [1], the “formation of intraerythrocytic SNO-Hb” value is on record as “not”. Also, the “O2 dependence of vasorelaxant effects” value in test [2] (95%, 21%, <1% O2) is on record as “largely independent of PO2”. The brain perfusion entry in test [3] (100% O2 and 100% O2+3 ATA) is recorded as “increased brain perfusion”. In addition, the “change in blood pressure” value in test [4] is “decreased blood pressure”.
As for S-nitrosohemoglobin [SNO-Hb], the “effect on tone of rings contracted with phenylephrine under hypoxia” value in test [2] (1 μM, 6-7 torr) is listed as “caused relaxations”. In test [2] (10 μM glutathione, greatest at <1% O2), the “effect of glutathione on vasorelaxant response” value is listed as “potentiates the vasorelaxant response”. Also, in test [2] (95% O2), the “concentration-effect responses in R-structure” value is on record as “virtually identical to those of native Hb”. Further, the “local cerebral blood flow” value in test [3] (21% O2) is “improved blood flow in all three regions of the brain tested”; in test [3] (100% O2), “significantly attenuated”; in test [3] (100% O2+3 ATA), “tended to decrease cerebral flow to similar extents”. For the same compound, the “change in blood pressure” value in test [4] was “significantly less of an increase in blood pressure than Hb”.
With “SNO-Hb(FeII): S-nitrosohemoglobin in the deoxy state”, the “rate of RSNO decomposition (and transfer)” value in test [5] (deoxy versus oxy state, PBS pH 7.4) is “much faster in the deoxy conformation”. The “effect on vessel tone in T-structure” value in test [2] (<1% O2 (˜6 torr)) was “modest effect on baseline tone”.
Turning to SNO-Hb(FeII)O2: S-nitroso-oxyhemoglobin, in test [6], the “effect of added glutathione on the dose-response” value is recorded as “potentiates the dose-response” and the “activity in vascular ring bioassay” value is “modest NO-like activity”. Also, the blood pressure response result in test [7] is recorded as “did not exhibit hypertensive effects”.
With “SNO-Hb(FeIII): S-nitrosohemoglobin with heme oxidized to FeIII”, in test [6], the “effect of added glutathione on the dose-response” value was “potentiates the dose-response” and the “activity in vascular ring bioassay” value is “vasodilator”. Also, the “rate of NO group transfer to glutathione” value in test [5] (SNO-Hb 100 μM, glutathione 10 mM, versus SNO-Hb(FeII)O2) was “more rapid”. Besides, in test [7] (after 200 nmol/kg (highest dose)), the “mean arterial pressure, post” value is listed as 74±6 mm Hg. In test [7] (after hypotensive response), the “time for blood pressure to normalize” value came out at 10 min. Besides, the “mean arterial pressure, pre” value in test [7] (before 200 nmol/kg) is 108±4 mm Hg. The blood pressure response result in test [7] was “elicited hypotensive responses”.

The record behind these values is patent US6916471B2, “Red blood cells loaded with S-nitrosothiol and uses therefor” (Duke University, priority 1995, dated 2005).
